Test results as given in US8569267B2, “Tetracyclic tetrahydrofuran derivatives containing cyclic amine side chain” (Janssen Pharmaceutica, NV, priority 2005, dated 2013).
Read-outs that look alike come from different tables or passages of the source.

Key:
[1] = target: T1, human cloned 5-HT2C receptor, expressed in CHO cells (Homo sapiens, UniProt P28335); assay: In vitro binding affinity for 5-HT2C receptor ([3H]mesulergine radioligand binding)
T1 construct: expressed in transfected cells; host or cells: CHO cells
T1 sequence (P28335 33-458): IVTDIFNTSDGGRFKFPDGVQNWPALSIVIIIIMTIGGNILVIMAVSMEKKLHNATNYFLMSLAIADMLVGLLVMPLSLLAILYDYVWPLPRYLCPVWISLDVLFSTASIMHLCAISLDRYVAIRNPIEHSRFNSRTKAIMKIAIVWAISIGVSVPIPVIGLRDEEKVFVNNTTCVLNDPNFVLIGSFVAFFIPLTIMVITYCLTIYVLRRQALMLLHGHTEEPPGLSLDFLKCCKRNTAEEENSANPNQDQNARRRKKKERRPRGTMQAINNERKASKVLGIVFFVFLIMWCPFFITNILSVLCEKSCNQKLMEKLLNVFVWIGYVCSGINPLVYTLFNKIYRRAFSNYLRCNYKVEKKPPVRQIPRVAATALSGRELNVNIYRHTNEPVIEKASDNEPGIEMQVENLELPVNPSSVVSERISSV
Procedure: In Vitro Binding Affinity for 5-HT2A and 5-HT2C Receptors
The interaction of the compounds of Formula (I) with 5-HT2A and 5-HT2C receptors was assessed in in vitro radioligand binding experiments. […] During the incubation, the radioligands bind to the receptor. When equilibrium of binding is reached, the receptor bound radioactivity is separated from the non-bound radioactivity, and the receptor bound activity is counted. The interaction of the test compounds with the receptors is assessed in competition binding experiments. Various concentrations of the test compound are added to the incubation mixture containing the tissue preparation and the radioligand. Binding of the radioligand will be inhibited by the test compound in proportion to its binding affinity and its concentration.

[2] = target: T2, human Dopamine D2L receptor (Homo sapiens, UniProt P14416); assay: In vitro binding affinity for human D2L receptor ([3H]Spiperone binding)
T2 construct: expressed in transfected cells; host or cells: CHO cells
T2 sequence (P14416 whole entry): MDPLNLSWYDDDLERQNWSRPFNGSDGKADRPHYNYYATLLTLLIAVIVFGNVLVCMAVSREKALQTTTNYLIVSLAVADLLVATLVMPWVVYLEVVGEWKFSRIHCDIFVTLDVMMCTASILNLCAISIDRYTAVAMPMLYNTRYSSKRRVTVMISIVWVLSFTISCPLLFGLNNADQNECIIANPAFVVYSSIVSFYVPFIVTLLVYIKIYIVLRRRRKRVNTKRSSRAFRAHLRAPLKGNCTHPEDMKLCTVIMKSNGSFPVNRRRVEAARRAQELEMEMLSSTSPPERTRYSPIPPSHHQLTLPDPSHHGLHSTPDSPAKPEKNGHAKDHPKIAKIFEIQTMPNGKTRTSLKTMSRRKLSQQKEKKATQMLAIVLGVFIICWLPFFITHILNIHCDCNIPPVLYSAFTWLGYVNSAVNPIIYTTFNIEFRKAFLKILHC
Procedure: In Vitro Binding Affinity for Human D2L Receptor
Frozen membranes of human Dopamine D2L receptor-transfected CHO cells were thawed, briefly homogenised using an Ultra-Turrax T25 homogeniser and diluted in Tris-HCl assay buffer containing NaCl, CaCl2, MgCl2, KCl (50, 120, 2, 1, and 5 mM respectively, adjusted to pH 7.7 with HCl) to an appropriate protein concentration optimised for specific and non-specific binding. Radioligand [^3H]Spiperone (NEN, specific activity ˜70 Ci/mmol) was diluted in assay buffer at a concentration of 2 nmol/L. Prepared radioligand (50 μl), along with 50 μl of either the 10% DMSO control, Butaclamol (10^−6 mol/l final concentration), or compound of interest, was then incubated (30 min, 37° C.) with 400 μl of the prepared membrane solution. Membrane-bound activity was filtered through a Packard Filtermate harvester onto GF/B Unifilterplates and washed with ice-cold Tris-HCl buffer (50 mM; pH 7.7; 6×0.5 ml). Filters were allowed to dry before adding scintillation fluid and counting in a Topcount scintillation counter. Percentage specific bound and competition binding curves were calculated using S-Plus software (Insightful).

[3] = target: T3, NET (norepinephrine transporter) (Rattus norvegicus, UniProt Q63380); assay: In vitro determination of NET reuptake inhibition ([3H]Nixosetine binding, rat brain cortex)
T3 construct: Cortex from rat brain was collected and homogenised; from tissue; host or cells: rat brain cortex
T3 sequence (Q63380 1-617): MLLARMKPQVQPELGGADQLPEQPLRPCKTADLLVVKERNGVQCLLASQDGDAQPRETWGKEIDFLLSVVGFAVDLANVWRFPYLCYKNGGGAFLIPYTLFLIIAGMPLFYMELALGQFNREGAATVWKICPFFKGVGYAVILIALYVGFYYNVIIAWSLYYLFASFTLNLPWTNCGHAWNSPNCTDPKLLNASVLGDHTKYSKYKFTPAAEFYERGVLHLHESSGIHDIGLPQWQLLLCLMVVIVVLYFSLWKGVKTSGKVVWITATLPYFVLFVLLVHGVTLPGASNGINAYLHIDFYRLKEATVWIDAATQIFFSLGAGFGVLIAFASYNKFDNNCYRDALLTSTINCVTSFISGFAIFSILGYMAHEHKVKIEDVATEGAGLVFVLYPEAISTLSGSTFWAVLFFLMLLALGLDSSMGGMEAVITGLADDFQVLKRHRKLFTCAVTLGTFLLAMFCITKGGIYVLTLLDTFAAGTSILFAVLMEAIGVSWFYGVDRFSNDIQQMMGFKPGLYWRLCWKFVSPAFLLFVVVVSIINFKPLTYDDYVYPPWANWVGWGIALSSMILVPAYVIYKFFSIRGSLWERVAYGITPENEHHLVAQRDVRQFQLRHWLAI
Procedure: In Vitro Determination of NET Reuptake Inhibition
Cortex from rat brain was collected and homogenised using an Ultra-Turrax T25 and a Dual homogeniser in ice-cold homogenising buffer containing Tris, NaCl and KCl (50 mM, 120 mM and 5 mM, respectively, pH 7.4) prior to dilution to an appropriate protein concentration optimised for specific and non-specific binding. […] Membrane-bound activity was detected by filtration through a Packard Filtermate harvester onto GF/B Unifilterplates, washed with ice-cold Tris-HCl buffer, containing NaCl and KCl (50 mM, 120 mM and 4 mM; pH 7.4; 6×0.5 ml). Filters were allowed to dry for 24 h before adding scintillation fluid. Scintillation fluid was allowed to saturate filters for 24 h before counting in a Topcount scintillation counter. Percentage specific bound and competition binding curves were calculated using S-Plus software (Insightful).

[4] = human cloned 5-HT2C receptor, read-out: 5-HT2C pIC50 (converted)
[5] = human D2L receptor-transfected CHO cell membranes, read-out: D2L pIC50 (converted)
[6] = rat brain cortex, read-out: NET pIC50 (converted)

Compound	IC50 [1, 4] [nM]	IC50 [2, 5] [nM]	IC50 [3, 6] [nM]	IC50 ([1]; 5-HT2C pIC50, human cloned 5-HT2C receptor) [nM]	IC50 ([2]; D2L pIC50, human D2L receptor-transfected CHO cell membranes) [nM]	IC50 ([3]; NET pIC50, rat brain cortex) [nM]
N#CC1(c2ccccc2)CCN(C(=O)C2CCN(CC3CC4c5ccccc5Cc5ccc(F)cc5C4O3)CC2)CC1 (stereo not drawn) [Compound 208]	7.94	22.9	> 10000			
COC(=O)NC1CCN(CC2CC3c4ccccc4Cc4ccc(F)cc4C3O2)CC1 (stereo not drawn) [Compound 210]	4.17	7.94	7410			
CCOC(=O)NC1CCN(CC2CC3c4ccccc4Cc4ccc(F)cc4C3O2)CC1 (stereo not drawn) [Compound 211]	5.75	5.89	> 10000			
CCCOC(=O)NC1CCN(CC2CC3c4ccccc4Cc4ccc(F)cc4C3O2)CC1 (stereo not drawn) [Compound 212]	7.41	6.03	7080			
CCCCOC(=O)NC1CCN(CC2CC3c4ccccc4Cc4ccc(F)cc4C3O2)CC1 (stereo not drawn) [Compound 213]	15.5	8.71	4370			
COCCOC(=O)NC1CCN(CC2CC3c4ccccc4Cc4ccc(F)cc4C3O2)CC1 (stereo not drawn) [Compound 216]	6.17	10.2	> 10000			
C#CCOC(=O)NC1CCN(CC2CC3c4ccccc4Cc4ccc(F)cc4C3O2)CC1 (stereo not drawn) [Compound 217]	4.07	4.9	8910			
O=C(NC1CCN(C[C@H]2C[C@@H]3c4ccccc4Cc4ccc(F)cc4[C@@H]3O2)CC1)OCc1ccccc1Cl [Compound 218]	5.75	10.2	5620			
COc1ccc(OC(=O)NC2CCN(CC3CC4c5ccccc5Cc5ccc(F)cc5C4O3)CC2)cc1 (stereo not drawn) [Compound 219]				3.98	3.39	> 10000
O=C(NC1CCN(CC2CC3c4ccccc4Cc4ccc(F)cc4C3O2)CC1)C1CC1 (stereo not drawn) [Compound 220]	2.14	4.27	5370			
Cn1cccc1C(=O)NC1CCN(CC2CC3c4ccccc4Cc4ccc(F)cc4C3O2)CC1 (stereo not drawn) [Compound 221]	11	7.76	7240			
Cc1onc(-c2ccccc2Cl)c1C(=O)NC1CCN(CC2CC3c4ccccc4Cc4ccc(F)cc4C3O2)CC1 (stereo not drawn) [Compound 222]	19.5	15.1	> 10000			
O=C(NC1CCN(CC2CC3c4ccccc4Cc4ccc(F)cc4C3O2)CC1)c1cc2ccccc2s1 (stereo not drawn) [Compound 223]	23.4	17.8	8510			
CC(=O)N1CCC(C(=O)NC2CCN(CC3CC4c5ccccc5Cc5ccc(F)cc5C4O3)CC2)CC1 (stereo not drawn) [Compound 224]	12.9	3.39	> 10000			
Cc1cccc(C(=O)NC2CCN(CC3CC4c5ccccc5Cc5ccc(F)cc5C4O3)CC2)c1 (stereo not drawn) [Compound 225]	11.2	6.03	5250			
O=C(NC1CCN(CC2CC3c4ccccc4Cc4ccc(F)cc4C3O2)CC1)c1ccccc1Br (stereo not drawn) [Compound 226]	6.61	5.37	10500			

Compound	IC50 [1, 4] [nM]	IC50 [2, 5] [nM]	IC50 [3, 6] [nM]	IC50 ([1]; 5-HT2C pIC50, human cloned 5-HT2C receptor) [nM]	IC50 ([2]; D2L pIC50, human D2L receptor-transfected CHO cell membranes) [nM]	IC50 ([3]; NET pIC50, rat brain cortex) [nM]
O=C(NC1CCN(CC2CC3c4ccccc4Cc4ccc(F)cc4C3O2)CC1)c1ccccc1Cl (stereo not drawn) [Compound 227]	11.2	5.25	9120			
O=C(NC1CCN(CC2CC3c4ccccc4Cc4ccc(F)cc4C3O2)CC1)c1cccc(Cl)c1Cl (stereo not drawn) [Compound 228]	20.9	9.12	7940			
O=C(NC1CCN(CC2CC3c4ccccc4Cc4ccc(F)cc4C3O2)CC1)c1ccc(Cl)c(Cl)c1 (stereo not drawn) [Compound 229]	24	14.8	> 10000			
O=C(NC1CCN(CC2CC3c4ccccc4Cc4ccc(F)cc4C3O2)CC1)c1cccc(F)c1 (stereo not drawn) [Compound 231]	10.7	1.86	8510			
O=C(NC1CCN(CC2CC3c4ccccc4Cc4ccc(F)cc4C3O2)CC1)c1ccccc1F (stereo not drawn) [Compound 232]	9.77	4.79	4070			
O=C(NC1CCN(CC2CC3c4ccccc4Cc4ccc(F)cc4C3O2)CC1)c1cccc(C(F)(F)F)c1 (stereo not drawn) [Compound 233]	30.9	14.8	5250			
O=C(NC1CCN(CC2CC3c4ccccc4Cc4ccc(F)cc4C3O2)CC1)c1c(F)c(F)c(F)c(F)c1F (stereo not drawn) [Compound 234]	21.9	8.71	7240			
COc1cc(C(=O)NC2CCN(CC3CC4c5ccccc5Cc5ccc(F)cc5C4O3)CC2)cc(OC)c1OC (stereo not drawn) [Compound 235]	13.5	18.6	9120			
O=C(NC1CCN(CC2CC3c4ccccc4Cc4ccc(F)cc4C3O2)CC1)c1ccc(-c2ccccc2)cc1 (stereo not drawn) [Compound 237]	38	58.9	7940			
O=C(Nc1ccc2c(c1)CCC2)NC1CCN(CC2CC3c4ccccc4Cc4ccc(F)cc4C3O2)CC1 (stereo not drawn) [Compound 238]	5.62	21.4	7760			
O=C(Cc1ccc(Cl)cc1)NC1CCN(CC2CC3c4ccccc4Cc4ccc(F)cc4C3O2)CC1 (stereo not drawn) [Compound 239]	22.9	49	> 10000			
O=C(Cc1cccs1)NC1CCN(CC2CC3c4ccccc4Cc4ccc(F)cc4C3O2)CC1 (stereo not drawn) [Compound 240]	5.75	4.57	> 10000			
O=C(CSc1ccccc1)NC1CCN(CC2CC3c4ccccc4Cc4ccc(F)cc4C3O2)CC1 (stereo not drawn) [Compound 241]	6.46	5.5	7760			
CN(C)C(=O)NC1CCN(CC2CC3c4ccccc4Cc4ccc(F)cc4C3O2)CC1 (stereo not drawn) [Compound 243]	3.24	6.76	> 10000			
CCCNC(=O)NC1CCN(C[C@H]2C[C@@H]3c4ccccc4Cc4ccc(F)cc4[C@@H]3O2)CC1 [Compound 244]	4.27	4.57	8910			
CC(C)(C)CC(C)(C)NC(=O)NC1CCN(CC2CC3c4ccccc4Cc4ccc(F)cc4C3O2)CC1 (stereo not drawn) [Compound 245]	22.9	23.4	3980			
